{"source": "patent US10829522B2", "about": "“Peptide inhibiting colonization by pathogenic bacteria, and colonization inhibitor including same” (OSAKA UNIVERSITY, priority 2016, dated 2020)", "key": {"ΔN28-CofB": {"molecular_target": "ΔN28-CofB", "test": "Isothermal titration calorimetry, interaction with ΔN28-CofB", "format": "binding, enterotoxigenic Escherichia coli (ETEC)", "conditions": "ITC; for Kd: 25° C., 20 mM Tris-HCl (pH 8.0), 150 mM NaCl, ΔN28-CofB in terms of trimer, read-out: dissociation constant Kd value; for binding affinity to ΔN28-CofB compared with the binding affinity between CofJ and ΔN28-CofB: stronger than CofJ", "experimental": "The expression and purification methods were carried out according to past papers (Fukakusa, S, et al. Acta Cryst. 2012, D68, 1418-1429; Kawahara, K, et al. J. Mol. Biol, 2016, 428, 1209-1226).\nInteraction analysis was performed using CofB, CofJ and ΔN24-CofJ prepared by the above methods. An isothermal titration calorimeter Microcal iTC 200 (manufactured by GE Healthcare) was used for analysis of the interaction between the secretory protein CofJ and ΔN28-CofB. A 0.59 mM CofJ solution was charged in a titration syringe and a 28.5 μM (in terms of trimer) ΔN28-CofB solution was charged in a measuring cell, respectively, and the interaction of them was evaluated by directly observing heat changes that occur upon dropping the CofJ solution into the ΔN28-CofB solution. Titration conditions were such that the initial dropping amount was 1 μL, the dropping amount at the second and subsequent times was 2 μL, and dropping was performed 20 times in total every 120 seconds. The measurement temperature was 25° C., and the solvent was 20 mM Tris-HCl (pH 8.0), 150 mM NaCl. An exothermic change was observed by dropping the CofJ solution, which converged to the same level as the heat of dilution as the titration progressed. As a result of analysis of the obtained data using an analysis software Origin (Microcal), binding of CofJ and ΔN28-CofB was observed. The dissociation constant Kd value of both was 0.2 μM.\nNext, in order to investigate the contribution to binding to pili in the N-terminal region (1 to 24) of the secretory protein CofJ, analysis of the interaction between ΔN24-CofJ and ΔN28-CofB was carried out using an isothermal titration calorimeter Microcal iTC 200 (manufactured by GE Healthcare). A 0.59 mM ΔN24-CofJ solution was charged in a titration syringe and a 28.5 μM (in terms of trimer) ΔN28-CofB solution was charged in a measuring cell, respectively, and the interaction of them was evaluated by directly observing heat changes that occur upon dropping the ΔN24-CofJ solution into the ΔN28-CofB solution. No change in caloric value due to dropping of the ΔN24-CofJ solution was observed.\nFurthermore, in order to investigate the contribution to binding to pili in the N-terminal region (1 to 24) of the secretory protein CofJ, analysis of the interaction between a synthetic peptide consisting of 24 amino acid residues at the N terminal of CofJ (CofJ^1-24 peptide) purchased from Scrum Co., Ltd. and ΔN28-CofB was carried out using an isothermal titration calorimeter Microcal iTC200 (manufactured by GE Healthcare) in the same manner as described above. A 2 mM CofJ^1-24 peptide solution was charged in a titration syringe and a 33.9 μM (in terms of trimer) ΔN28-CofB solution was charged in a measuring cell, respectively, and the interaction of them was evaluated by directly observing heat changes that occur upon dropping the CofJ^1-24 peptide solution into the ΔN28-CofB solution. An exothermic change was observed by dropping the CofJ^1-24 peptide solution, which converged to the same level as the heat of dilution as the titration progressed. As a result of analysis of the obtained data using an analysis software Origin, binding of the CofJ^1-24 peptide and ΔN28-CofB was observed. The dissociation constant Kd value of both was 4 μM.\nNext, in order to investigate the binding specificity of the CofJ^1-24 peptide, analysis of the interaction between a synthetic random peptide (CofJpepR) purchased from Scrum Co., Ltd. and ΔN28-CofB was carried out using an isothermal titration calorimeter Microcal iTC 200 (manufactured by GE Healthcare). A 2 mM random peptide solution was charged in a titration syringe and a 28.5 μM (in terms of trimer) ΔN28-CofB solution was charged in a measuring cell, respectively, and the interaction of them was evaluated by directly observing heat changes that occur upon dropping the […] into the ΔN28-CofB solution. No change in caloric value due to dropping of the random peptide solution was observed. […]"}, "[1]": {"system": "HB101 cof adhesion to Caco2 cells", "test": "ETEC adhesion inhibitory activity using Caco2 cells", "format": "cell-based, Escherichia coli", "conditions": "1, 10, 100 μg/mL", "experimental": "First, Caco2 cells were dispersed using Dulbecco's Modified Eagle's Medium (DMEM) containing 50 μg/mL gentamicin and 10% fetal bovine serum, the cell concentration was measured using a blood cell counting chamber and diluted to 3.0×10^5 cells/mL. Dilution liquid was added to a 6-well plate each in an amount of 500 μL, and culture was performed by allowing the plate to stand still in a CO2 incubator at 5% CO2 and 37° C. for 48 hours. The cultured Caco2 cells were washed with PBS twice. After washing, DMEM containing 100 μg/mL ampicillin and 1% D-mannose was filtrated by passing through a 0.22 μm filter, then, the solution was added each in an amount of 500 μL to each well.\nNext, a small amount of the glycerol stock of HB101 cof was scraped off and added to LB medium containing 100 μg/mL ampicillin, and shaking culture was carried out overnight at 25° C. The culture liquid was suitably diluted and OD660 of the culture liquid was calculated using a turbidimeter. The culture liquid was serially diluted and CFU (colony forming unit) was measured. From the measured CFU, the concentration (cells/mL) of HB101 cof at OD660=1.0 was calculated. This calculated value was used to determine the concentration of HB101 cof later. […]\nETEC adhesion inhibitory activity was evaluated in the same manner as in Example 9 using CofJ^4-16-GCN4. […]"}, "[2]": {"system": "binding of CofJ and Trx-His-ΔN28-CofB", "test": "Pull down assay using a Ni column, inhibition of CofB/CofJ binding", "set-up": "species or system enterotoxigenic Escherichia coli (ETEC)", "conditions": "SDS-PAGE", "description": "To examine whether the CofJ^1-24-GCN4 inhibitory peptide is capable of inhibiting the binding of CofB and CofJ, it was confirmed in the in vitro experiment system by pull down assay using a Ni column. For experiments, ΔN28-CofB (Trx-His-ΔN28-CofB), CofJ, CofJ^1-24-GCN4, a CofJ^1-24 peptide and a peptide (CofJpepR) in which the amino acid sequence of the CofJ^1-24 peptide was randomized, with added thioredoxin tag (Trx) and His tag, were used. The sequence of CofJpepR is […] (SEQ ID NO: 22).\nSolutions mixed so that the concentration of Trx-His-ΔN28-CofB was 1 μM and the concentration of CofJ^1-24-GCN4 was (0, 0.5, 1.0, 2.0, 5.0, 10.0 μM) were allowed to stand still on ice overnight. Further, CofJ was mixed so that the final concentration became 1 μM, and the mixtures were allowed to stand still on ice for 1 hour, to obtain experiment samples. Each sample was applied to a Ni column equilibrated with 20 mM Tris-HCl, 150 mM NaCl, pH 8.0, and the column was washed with 20 mM Tris-HCl, 150 mM NaCl, 15 mM Imidazole, pH 8.0. Thereafter, elution was performed with 20 mM Tris-HCl, 150 mM NaCl, 300 mM Imidazole, pH 8.0, and the eluted fraction was confirmed by SDS-PAGE.\nAlso for the CofJ^1-24 peptide and CofJpepR, the inhibition ability thereof was investigated by the same method. Specifically, solutions mixed so that the concentration of Trx-His-ΔN28-CofB was 1 μM and the concentration of the CofJ^1-24 peptide and CofJpepR was 1000 μM were allowed to stand still on ice overnight. Further, CofJ was mixed so that the final concentration became 1 μM, and the mixtures were allowed to stand still on ice for 1 hour, to obtain experiment samples. The pull down assay was performed in the same manner as described above. […] From this, it is considered that CofJ^1-24-GCN4 can inhibit the binding between CofB and CofJ by strongly binding with CofB by trimerizing.\nIn order to investigate whether the CofJ^4-16-GCN4 inhibitory peptide can inhibit the binding of CofB and CofJ, it was confirmed in the in vitro experimental system by a pull down assay using a Ni column. For the experiment, ΔN28-CofB (Trx-His-ΔN28-CofB), CofJ and CofJ^4-16-GCN4, with added thioredoxin tag (Trx) and His tag (His), were used.\nSolutions mixed so that the concentration of Trx-His-ΔN28-CofB was 1 μM and the concentration of CofJ^4-16-GCN4 was (0, 0.5, 1.0, 2.0, 5.0, 10.0 μM) were allowed to stand still on ice overnight. Further, CofJ was mixed so that the final concentration became 1 μM, and the mixtures were allowed to stand still on ice for 1 hour, to obtain experiment samples. Each sample was applied to a Ni column equilibrated with 20 mM Tris-HCl, 150 mM NaCl, pH 8.0, and the column was washed with 20 mM Tris-HCl, 150 mM NaCl, 15 mM Imidazole, pH 8.0. […]"}, "[3]": {"conditions": "peptide premixed at a concentration not lower than that of CofJ (1 μM), 0.5-10.0 μM tested"}, "[4]": {"conditions": "peptide 1000 μM (1000 times that of CofJ, 1 μM)"}}, "data": [{"substance": "CofJ^1-24-GCN4: GPLG, CofJ 1-24 sequence (SEQ ID NO: 1), linker TSGGG (SEQ ID NO: 9) and GCN4 sequence (SEQ ID NO: 6); expressed in E. coli", "values": [{"measurement": "Kd", "setting": "ΔN28-CofB", "value": 0.04, "unit": "µM"}, {"measurement": "binding affinity to ΔN28-CofB compared with the binding affinity between CofJ and ΔN28-CofB", "setting": "ΔN28-CofB", "value": "about 5 times"}, {"measurement": "inhibition of colonization of HB101 cof to Caco2 cells", "setting": "[1]", "value": "inhibits colonization of HB101 cof to Caco2 cells in concentration-dependent manner"}, {"measurement": "inhibition of the binding of CofJ and Trx-His-ΔN28-CofB", "setting": "[2]; [3]", "value": "strongly inhibited"}]}, {"substance": "CofJ^4-16-GCN4: GPLG, SSEGGAFTVNMPK (SEQ ID NO: 23), linker TSGGG (SEQ ID NO: 9) and GCN4 sequence (SEQ ID NO: 6); expressed in E. coli", "values": [{"measurement": "Kd", "setting": "ΔN28-CofB", "value": 0.08, "unit": "µM"}, {"measurement": "binding affinity to ΔN28-CofB compared with the binding affinity between CofJ and ΔN28-CofB", "setting": "ΔN28-CofB", "value": "about 2.5 times"}, {"measurement": "inhibition of colonization of HB101 cof to Caco2 cells", "setting": "[1]", "value": "inhibits colonization of HB101 cof to Caco2 cells in concentration-dependent manner"}, {"measurement": "inhibition of the binding of CofJ and Trx-His-ΔN28-CofB", "setting": "[2]; [3]", "value": "strongly inhibited"}]}, {"substance": "NPSGFDKSGSSTTRTPAMSVIVDE [CofJpepR, reference compound]", "values": [{"measurement": "binding to ΔN28-CofB (change in caloric value)", "setting": "ΔN28-CofB; 28.5 μM ΔN28-CofB in cell", "value": "do not bind"}, {"measurement": "inhibition of the binding of CofJ and Trx-His-ΔN28-CofB", "setting": "[2]; [4]", "value": "can not be inhibited at all"}]}, {"substance": "SPSSSEGGAFTVNMPKTSTVDDIR [CofJ^1-24 peptide, reference compound]", "values": [{"measurement": "Kd", "setting": "ΔN28-CofB", "value": 4, "unit": "µM"}, {"measurement": "inhibition of the binding of CofJ and Trx-His-ΔN28-CofB", "setting": "[2]; [4]", "value": "hardly inhibited"}]}, {"substance": "SSEGGAFTVNMPK [CofJ^4-16 peptide, reference compound]", "values": [{"measurement": "Kd", "setting": "ΔN28-CofB", "value": 4, "unit": "µM"}]}]}
